# “Also recorded” adds a separate entry of the source. Counter-ions that a name gives are not always drawn.
# How the values were obtained:
# [1] = Stability and integrity of 1-DNJ-HCl in buffer solutions at 60° C. by NP-HPLC (UV and CAD) and discoloration; assay type: physicochemical
# Experimental: 1-DNJ-HCl was dissolved in sodium phosphate buffer. 1-DNJ-HCl concentration was 60 mg/mL; sodium phosphate buffer concentration was 100 mM at pH 4.89. The formulation was stored at 60° C. for 4 days. 1-DNJ-HCl solution in water was used as a control. Reaction rate for small molecules such as 1-DNJ-HCl generally follows Arrhenius equation where reaction rate nearly doubles for every 10° C. increase in the temperature. Thus, under this model, the reaction rate at 60° C. would be 2^5 or 32 times the reaction rate at 10° C. Therefore during 4 days at 60° C. 1-DNJ-HCl would degrade by approximately the same percentage as during 128 days (4*32) at 10° C. The stability of 1-DNJ-HCl was measured by normal phase high performance liquid chromatography (NP-HPLC). 1-DNJ-HCl was recorded by UV chromatograms and by Charged Aerosol Detector (CAD) chromatograms. Mobile phase consisted of ACN/30 mM Ammonium Acetate (90/10, v/v). The flow rate was 1.0 ml/min with 5 μl injection at 400° C. UV absorbance was measured at 220 nm CAD detector settings were 35.0 psi, Gain: 100 pA. 1-DNJ-HCl was dissolved in sodium acetate buffer. The 1-DNJ-HCl concentration was 60 mg/mL; sodium acetate buffer concentration was 50 mM at pH 5.5. The formulation was stored at 60° C. for 4 days. 1-DNJ-HCl solution in water was used as control. Reaction rate for small molecules such as 1-DNJ-HCl generally follows the Arrhenius equation, in which the reaction rate nearly doubles for every 10°K increase in the temperature. Thus the reaction rate, under this model, at 60° C. would be 2^5 or 32 times the reaction rate at 10° C. Therefore during 4 days at 60° C. 1-DNJ-HCl would degrade by approximately same percentage as during 128 days at 10° C. The stability of 1-DNJ-HCl was measured by NP-HPLC. Presence of 1-DNJ-HCl was recorded by UV absorbance detector and by Charged Aerosol Detector. Mobile phase consisted of ACN/30 mM Ammonium Acetate (90/10, v/v). The flow rate was 1.0 ml/min with 5 μl injection at 400 C. UV absorbance was measured at 220 nm. CAD detector settings were 35.0 psi, Gain: 100 pA. 1-DNJ-HCl was dissolved in sodium citrate buffer that further includes EDTA. 1-DNJ-HCl concentration was 60 mg/mL; sodium citrate buffer concentration was 50 mM at pH 4.6. The EDTA concentration was 0.05% w/v. Some samples were stored under the nitrogen atmosphere (essentially 100% nitrogen) while others were stored under air. The formulation was stored at 60° C. for 8 days. Stability of 1-DNJ-HCl was measured by NP-HPLC. Presence of 1-DNJ-HCl was recorded by UV absorbance detector and by Charged Aerosol Detector. Mobile phase consisted of ACN/30 mM Ammonium Acetate (90/10, v/v). The flow rate was 1.0 ml/min with 5 μl injection at 400 C. UV absorbance was measured at 220 nm. CAD detector settings were 35.0 psi, Gain: 100 pA. 1-DNJ-HCl was dissolved in sodium citrate buffer. 1-DNJ-HCl concentration was 60 mg/mL; sodium citrate buffer concentration was 50 mM at pH 4.7. The formulation was stored at 60° C. for 8 days. 1-DNJ-HCl solution in water was used as control. Stability of 1-DNJ-HCl was measured by NP-HPLC. Presence of 1-DNJ-HCl was recorded by UV absorbance detector and by Charged Aerosol Detector. Mobile phase consisted of ACN/30 mM Ammonium Acetate (90/10, v/v). The flow rate was 1.0 ml/min with 5 μl injection at 400 C. UV absorbance was measured at 220 nm. CAD detector settings were 35.0 psi, Gain: 100 pA. 1-DNJ-HCl was dissolved in sodium citrate buffer. 1-DNJ-HCl concentration was 60 mg/mL; sodium citrate buffer concentration was 50 mM at pH 5.0. The formulation was stored at 60° C. for 17 days. The samples were stored under the nitrogen atmosphere (essentially 100% nitrogen). 1-DNJ-HCl solution in water was used as control. Reaction rate for small molecules such as 1-DNJ-HCl generally follows Arrhenius equation where reaction rate nearly doubles for every 10°K increase in the temperature. Thus reaction rate at 60° C. would be 2^5 or 32 times the reaction rate at 10° C. Therefore during 17 days at 60° C. […]
# rat whole blood = assay: Hemolytic potential in rat whole blood; assay type: cell-based, Sprague Dawley rat; conditions: 37 ° C. 30 minutes
# Experimental: 1-DNJ-HCl was dissolved in sodium citrate buffer. 1-DNJ-HCl concentration was 30 mg/mL (resulting free 1-DNJ concentration was 25 mg/mL); sodium citrate buffer concentration was 50 mM at pH 5.0. 1-DNJ-HCl formulation was added to whole blood samples of male human, rat, and cynomolgus monkey. […]. Buffer served as a negative control, while Triton-X 100 (Lysing agent) served as a positive control. Additionally blood sample without any additions was used as a negative control. The samples were stored at 4° C. Blood samples were incubated at 37 ° C. for 30 minutes with the 1-DNJ-HCl formulation, after which the samples were centrifuged. The amount of hemoglobin in the supernatant from each centrifuged sample was measured using a commercially available hemoglobin assay kit (BioAssay Systems, QuantiChrom™ Hemoglobin Assay Kit) and the Tecan microplate reader.
# [2] = 60 mg/mL in 50 mM sodium acetate buffer pH 5.5, 60° C., 4 days, hydrochloride
# [3] = 60 mg/mL in 50 mM sodium citrate buffer pH 4.6, EDTA 0.05% w/v, nitrogen atmosphere, 60° C., 8 days
# [4] = 60 mg/mL in 50 mM sodium citrate buffer pH 4.6, EDTA 0.05% w/v, stored under air, 60° C., 8 days
# [5] = 60 mg/mL in 100 mM sodium phosphate buffer pH 4.89, 60° C., 4 days
# [6] = 60 mg/mL in 100 mM sodium phosphate buffer pH 4.89, 60° C., 4 days, hydrochloride
# [7] = control 1-DNJ-HCl aqueous solution, 60° C., 4 days
# [8] = control 1-DNJ-HCl aqueous solution, 60° C., 8 days
# [9] = control 1-DNJ-HCl aqueous solution, 60° C., 17 days
# [10] = sodium citrate buffer, summary of the Examples
compound,measurement,setting,value
"OC[C@H]1NC[C@H](O)[C@@H](O)[C@@H]1O [1-DNJ-HCl, 1-deoxynojirimycin hydrochloride]",Presence of 1-DNJ-HCl (NP-HPLC),"[1]; 60 mg/mL in 50 mM sodium acetate buffer pH 5.5, 60° C., 4 days",still present
same,Discoloration,[1]; [2],discoloration of the acetate buffer solution was observed; also recorded: resulted in discoloration
same,New compounds (UV and CAD chromatograms),[1]; [2],detected presence of new compounds; also recorded: presence of additional compounds
same,Presence of 1-DNJ-HCl (NP-HPLC),"[1]; 60 mg/mL in 50 mM sodium citrate buffer pH 4.6, EDTA 0.05% w/v, 60° C., 8 days",still present
same,Discoloration,[1]; [3],remained clear with no visible discoloration
same,New compounds (UV and CAD chromatograms),[1]; [3],No new compounds were detected
same,Discoloration,[1]; [4],slight discoloration
same,New compounds (UV and CAD chromatograms),[1]; [4],showed presence of new compounds
same,Presence of 1-DNJ-HCl (NP-HPLC),"[1]; 60 mg/mL in 50 mM sodium citrate buffer pH 4.7, 60° C., 8 days",still present
same,Presence of 1-DNJ-HCl (NP-HPLC),"[1]; 60 mg/mL in 50 mM sodium citrate buffer pH 5.0, nitrogen atmosphere, 60° C., 17 days",still present
same,Presence of 1-DNJ-HCl (NP-HPLC),[1]; [5],still present
same,Stability,[1]; [5],not stable
same,Discoloration,[1]; [6],discoloration of the phosphate buffer solution was observed; also recorded: resulted in discoloration
same,New compounds (UV and CAD chromatograms),[1]; [6],detected presence of new compounds; also recorded: presence of additional compounds
same,Appearance of solution,[1]; [7],remainded clear
same,New compounds (UV and CAD chromatograms),[1]; [7],No new compounds were detected
same,Discoloration,[1]; [8],No discoloration was observed
same,New compounds (UV and CAD chromatograms),[1]; [8],No new compounds were detected
same,Discoloration,[1]; [9],No discoloration was observed
same,New compounds (UV and CAD chromatograms),[1]; [9],No new compounds were detected
same,Relative stability among buffers,[1]; sodium citrate buffer compared with sodium phosphate and sodium acetate buffers,most stable
same,Additional compounds (HPLC),[1]; [10],little to no presence of additional compounds
same,Discoloration,[1]; [10],little to no discoloration
same,% RBC lysis,rat whole blood; 500 μL blood mixed with 500 μL sample (30 mg/mL AT2220 or 0.1% Triton X-100),−0.3%
same,Avg OD (n = 4),"rat whole blood; 500 μL blood mixed with 500 μL sample, 30 mg/mL AT2220 dilution 1, 0.1% Triton X-100 dilution 100",0.3535
